Experimental data reported in patent US20070092577A1, “Dietary calcium for reducing the production of reactive oxygen species” (University of Tennessee Research Foundation, priority 2005, published 2007).

Legend:
[1] = test system: [Ca^2+]i in cultured 3T3-L1 adipocytes; experiment: Intracellular calcium in cultured adipocytes (fura-2); assay type: cell-based, murine; settings: 4 hours
Description: 3T3-L1 preadipocytes were incubated at a density of 8000 cells/cm^2 (10 cm^2 dish) and grown in Dulbecco's modified Eagle's medium (DMEM) containing 10% FBS and antibiotics (adipocyte medium) at 37° C. in 5% CO2 in air. Confluent preadipocytes were induced to differentiate with a standard differentiation medium consisting of DMEM-F 10 (1:1, vol/vol) medium supplemented with 1% FBS, 1 μM dexamethasone, IBMX (0.5 mM) and antibiotics (1% Penicillin-Streptomycin). Preadipocytes were maintained in this differentiation medium for 3 days and subsequently cultured in adipocyte medium. Cultures were re-fed every 2-3 days to allow 90% of cells to reach full differentiation before conducting chemical treatment. Chemicals were freshly diluted in adipocyte medium before treatment. Cells were washed with fresh adipocyte medium, re-fed with medium containing the different treatments, and incubated at 37° C. in 5% CO2 in air before analysis. Cell viability was measured via trypan blue exclusion. [Ca^2+]i in adipocytes was measured using a fura-2 dual-wavelength fluorescence imaging system. Cells were plated in 35-mm dishes […]). […] Cells were loaded with fura-2 acetoxymethyl ester (fura-2 AM) (10 μmol/L) in the same buffer for 2 h at 37° C. in a dark incubator with 5% CO2. To remove extracellular dye, cells were rinsed with HBSS three times and then post-incubated at room temperature for an additional 1 h for complete hydrolysis of cytoplasmic fura-2 AM. The dishes with dye-loaded cells were mounted on the stage of Nikon TMS-F fluorescence inverted microscope with a Cohu model 4915 charge-coupled device (CCD) camera. Fluorescent images were captured alternatively at excitation wavelengths of 340 and 380 nm with an emission wavelength of 520 nm. After establishment of a stable baseline, the responses to 1α, 25-(OH)2-D3 was determined. [Ca^2+]i was calculated using a ratio equation as described previously. Each analysis evaluated responses of 5 representative whole cells. Images were analyzed with […]2 version 4.62 imaging software (Intracellular Imaging, Cincinnati, Ohio). […]

[2] = test system: adiponectin; experiment: Adiponectin expression in differentiated 3T3-L1 adipocytes; assay type: cell-based, mouse; settings: 100 nmol/L H2O2 or 1 μmol/L α±tocopherol, 48 h
Description: (§1) 3T3-L1 pre-adipocytes were incubated at a density of 8000 cells/cm^2 (10 cm^2 dish) and grown in Dulbecco's modified Eagle's medium (DMEM) containing 10% FBS and antibiotics (adipocyte medium) at 37° C. in 5% CO2 in air. Confluent pre-adipocytes were induced to differentiate with a standard differentiation medium consisting of DMEM-F10 (1:1, vol/vol) medium supplemented with 1% fetal bovine serum (FBS), 1 μM dexamethasone, isobutylmethylxanthine (IBMX) (0.5 mM) and antibiotics (1% Penicillin-Streptomycin). Pre-adipocytes were maintained in this differentiation medium for 3 days and subsequently cultured in adipocyte medium. Cultures were re-fed every 2-3 days to allow 90% cells to reach fully differentiation before conducting chemical treatment. […] Cell viability was measured via trypan blue exclusion. Adipocyte and muscle 18s, TNFα, IL-6, IL-8, IL-15 and adiponectin were quantitatively measured using a smart cycler real-time PCR system (Cepheid, Sunnyvale, Calif.) with a TaqMan 1000 Core Reagent Kit (Applied Biosystems, Branchburg, N.J.). […] Reactions of quantitative RT-PCR for standards and unknown samples were also performed according to the instructions of Smart Cycler System (Cepheid, Sunnyvale, Calif.) and TaqMan Real Time PCR Core Kit (Applied Biosystems, Branchburg, N.J.). The mRNA quantitation for each sample was further normalized using the corresponding 18s quantitation.

[3] = test system: IL-15; experiment: IL-15 expression in differentiated 3T3-L1 adipocytes; assay type: cell-based, mouse
Description: as §1

[4] = test system: ROS production in cultured 3T3-L1 adipocytes; experiment: ROS production in cultured adipocytes (H2-DCFDA); assay type: cell-based, murine; settings: 48 hours
Description: 3T3-L1 preadipocytes were incubated at a density of 8000 cells/cm^2 (10 cm^2 dish) and grown in Dulbecco's modified Eagle's medium (DMEM) containing 10% FBS and antibiotics (adipocyte medium) at 37° C. in 5% CO2 in air. Confluent preadipocytes were induced to differentiate with a standard differentiation medium consisting of DMEM-F 10 (1:1, vol/vol) medium supplemented with 1% FBS, 1 μM dexamethasone, IBMX (0.5 mM) and antibiotics (1% Penicillin-Streptomycin). Preadipocytes were maintained in this differentiation medium for 3 days and subsequently cultured in adipocyte medium. Cultures were re-fed every 2-3 days to allow 90% of cells to reach full differentiation before conducting chemical treatment. Chemicals were freshly diluted in adipocyte medium before treatment. Cells were washed with fresh adipocyte medium, re-fed with medium containing the different treatments, and incubated at 37° C. in 5% CO2 in air before analysis. Cell viability was measured via trypan blue exclusion. […] Cells were loaded with H2-DCFDA (2 μmol/L) 30 minute before the end of the incubation period (48 h). After washing twice with PBS, cells were scraped and disrupted by sonication on ice (20s). Fluorescence (emission 543 nm or 527 nm) and DNA content were then measured as described previously. The intensity of fluorescence was expressed as arbitary units per ng DNA.

Compound | increase in [Ca^2+]i ([1]; H2O2 100 nmol/L or glucose 30 mmol/L, p<0.001) | effect on adiponectin production [2] | effect on IL-15 expression ([3]; 100 nmol/L H2O2, 48 h) | effect on high glucose induced ROS production ([4]; added to glucose 30 mmol/L, nifedipine 10 μmol/L) | effect on H2O2 induced increase in [Ca^2+]i ([1]; α-tocopherol 1 μmol/L with H2O2 100 nmol/L) | effect on glucose induced increase in [Ca^2+]i ([1]; α-tocopherol 1 μmol/L with glucose 30 mmol/L) | effect on ROS production in all groups ([4]; α-tocopherol 1 μmol/L) | increase of IL-15 as compared to H2O2-treated cells ([3]; 1 μmol/L α±tocopherol added to 100 nmol/L H2O2, 48 h, P=0.043)
OO [H2O2, hydrogen peroxide] | 5 fold | without significant effect | no direct effect | – | – | – | – | –
C=C1/C(=C\C=C2/CCC[C@]3(C)[C@@H]([C@H](C)CCCC(C)(C)O)CC[C@@H]23)C[C@@H](O)C[C@@H]1O [calcitriol, 1, 25-Dihydroxyvitamin D] | – | – | – | greater stimulation of ROS production than either glucose alone or glucose plus GDP | – | – | – | –
Cc1c(C)c2c(c(C)c1O)CC[C@@](C)(CCC[C@H](C)CCC[C@H](C)CCCC(C)C)O2 [α-tocopherol] | – | increased | – | – | reversed | partially blocked | inhibited | 2.2 fold
